Data as given in ChEMBL document CHEMBL3430912, “GSK Tres Cantos Anti-Kinetoplastid Screening (TCAKS) Data”.

Key:
[1] = test system: Trypanosoma cruzi; assay: (§1) GSK_TCAKS: pIC50 Trypanosoma cruzi Imaging: Infected Cells. […] Cells were then washed once with PBS before infection. T. cruzi trypomastigotes, collected at days 5 to 8 after infection from LLC-MK2 parasite infected cultures, were allowed to swim out for 4h at 37C from a centrifuged pellet (2,500 rpm/10 min/room temperature). Trypomastigotes were then collected and counted in a CASY Cell Counter. Trypomastigotes, in supplemented DMEM, were added to H9c2 cultures in a multiplicity of infection of 1 and incubated for 18 h. Cells were washed once with PBS before incubation of the infected H9c2 monolayer with trypsin (Life-Technologies) to detach cells from the flask. Cells were counted in a CASY Cell Counter using a 150 um capillary and their density set at 5 * 10^4 cells per mL in supplemented assay DMEM. Infected H9c2 were dispensed into 384-well poly-lysine coated assay plates at 50uL per well using a Multidrop Combi dispenser. After seeding them, the plates were incubated at 37C, 5% CO2 for 72h. Cultures were then fixed and stained by addition of 50 uL of a solution containing 8% formaldehyde and 4 uM DRAQ5 DNA dye (BioStatus, UK) per well. […] Five images were collected per well for reliable statistical analysis. Automated image analysis was performed with a script developed on Acapella High Content Imaging and Analysis Software (PerkinElmer). Output: percentage of infected cells per well as a second infection marker.; assay type: functional, organism-based, Rattus norvegicus; conditions: H9c2, 4 h
[2] = test system: Leishmania donovani; assay: (§2) GSK_TCAKS: pIC50 Leishmania donovani Imaging: Amastigotes/Macrophages. Assay plates (384-well) were prepared by adding 250nL of compound to each well. For single shot assay, the final compound concentration was 5 uM. […] Automated image analysis was performed with a script developed on Acapella High Content Imaging and Analysis Software (PerkinElmer). Output: Average number of amastigotes per macrophage cell were reported for each well.; assay type: functional, organism-based, Homo sapiens; conditions: THP-1
[3] = test system: Leishmania donovani; assay: GSK_TCAKS: pIC50 Leishmania donovani viability assay using fluorescence intensity. Assay plates (1536-well) were prepared by adding 30nL per well of compound. For single shot assay, the final compound concentration was 5uM. […] Briefly, eGFP LdBOB axenic amastigotes were harvested, fixed and counted in a CASY cell counter (Roche-Applied Science). A final concentration of 1.5 * 10^5 cells per well were prepared in amastigote media containing 500 U/mL penicillin/streptomycin (Invitrogen) and 6uL was dispensed to each experimental well using a Multidrop Combi dispenser (Thermo Scientific). 6uL of assay media was dispensed to control columns used as reference for 100% compound response. Following incubation for 72 h at 37C, 5% CO2, 2 uL of resazurin was added to each well at a final concentration of 0.5 mM in phosphate buffered saline (PBS) with IGEPAL (Sigma-Aldrich), 0.05% (v/v).; assay type: functional, organism-based
[4] = test system: Trypanosoma brucei brucei; assay: GSK_TCAKS: pIC50 Trypanosoma brucei viability assay using fluorescence intensity. Assay plates (1536-well) were prepared by dispensing 25nL of compound solution per well using an Echo acoustic dispenser (Labcyte).; assay type: functional, organism-based; conditions: Lister 427, 2 h
[5] = test system: Leishmania donovani; assay: as §2, with “THP-1 Host Macrophages.” for “Amastigotes/Macrophages.”, “THP-1” for “Average number of amastigotes per macrophage”, “cell count” for “cell”; assay type: functional, organism-based, Homo sapiens
[6] = test system: NIH3T3; assay: GSK_TCAKS: pIC50 NIH 3T3 cell line viability assay using luminiscence. Tissue culture surface treated assay plates (1536-well) were used. […] The 100% cells survival control was determined exposing the host-cells to a 0.5% DMSO concentration, whereas the 100% toxicity control was achieved by seeding the cells in presence of Amphotericin B at 50uM. Plates were incubated for four days at 37C, 5% CO2. The assay readout was developed by addition of 5uL of CellTiter-Glo Reagent following the manufacturer's instructions. Luminiscence was measured using a ViewLux.; assay type: functional, cell-based; conditions: Mus musculus, NIH3T3, 96 h
[7] = test system: Leishmania donovani; assay: as §2, with “Infected Macrophages.” for “Amastigotes/Macrophages.”, “Percent” for “Average number”, “infected” for “amastigotes per”, “cells” for “cell”; assay type: functional, organism-based, Homo sapiens; conditions: THP-1
[8] = test system: Trypanosoma cruzi; assay: GSK_TCAKS: pIC50 Trypanosoma cruzi Imaging: Amastigotes/Cell. […] Cells were then washed once with PBS before infection. T. cruzi trypomastigotes, collected at days 5 to 8 after infection from LLC-MK2 parasite infected cultures, were allowed to swim out for 4h at 37C from a centrifuged pellet (2,500 rpm/10 min/room temperature). Trypomastigotes were then collected and counted in a CASY Cell Counter. Trypomastigotes, in supplemented DMEM, were added to H9c2 cultures in a multiplicity of infection of 1 and incubated for 18 h. Cells were washed once with PBS before incubation of the infected H9c2 monolayer with trypsin (Life-Technologies) to detach cells from the flask. Cells were counted in a CASY Cell Counter using a 150 um capillary and their density set at 5 * 10^4 cells per mL in supplemented assay DMEM. Infected H9c2 were dispensed into 384-well poly-lysine coated assay plates at 50uL per well using a Multidrop Combi dispenser. After seeding them, the plates were incubated at 37C, 5% CO2 for 72h. Cultures were then fixed and stained by addition of 50 uL of a solution containing 8% formaldehyde and 4 uM DRAQ5 DNA dye (BioStatus, UK) per well. […] Five images were collected per well for reliable statistical analysis. Automated image analysis was performed with a script developed on Acapella High Content Imaging and Analysis Software (PerkinElmer). Output: number of amastigotes per cell as infection level measurement.; assay type: functional, organism-based, Rattus norvegicus; conditions: H9c2, 4 h
[9] = test system: Trypanosoma cruzi; assay: as §1, with “H2C9” for “Trypanosoma cruzi”, “H9c2 Host Cardiomyocytes.” for “Infected Cells.”, “Number” for “percentage”, “H9c2 Host Cardiomyocytes nuclei to determine drug-related cytotoxicity.” for “infected cells per well as a second infection marker.”; assay type: functional, organism-based, Rattus norvegicus; conditions: H9c2, 4 h
[10] = GSK_TCAKS: pIC50 HepG2 human cell line viability assay using luminiscence. […] Seeding density was checked to ensure that new mono-layers were not more than 50% confluent at the time of harvesting. Cell suspension was added to 500 mL of the same medium at a final density of 1.2 * 10^5 cells/mL. This cell suspension was dispensed (25 uL, 3000 cells per well) into 384-well clear-bottom plates using a Multidrop Combi dispenser. Prior to addition of the cell suspension, the screening compounds (250 nL) were pre-dispensed into the plates with an Echo liquid handler. Plates were incubated for 48 h at 37C, 5% CO2. After incubation, plates equilibrated at room temperature for 30 min before proceeding to develop the luminescent signal. The signal developer, CellTiter-Glo Reagent, was allowed to equilibrate at room temperature for 30 min and added to the plates (25uL per well) using a Multidrop Combi dispenser. Plates were left for 10 min at room temperature for stabilization and then read using a ViewLux.; assay type: toxicity, cell-based
[11] = biological target: Sterol 14-alpha demethylase (Trypanosoma cruzi (strain CL Brener), UniProt Q7Z1V1); assay: GSK_TCAKS: pIC50 CYP51 from Trypanosoma cruzi.; assay type: functional
[12] = test system: Trypanosoma brucei brucei; assay: GSK_TCAKS: pIC50 Trypanosoma brucei viability assay using luminiscence. Assay plates (1536-well) were prepared. T. brucei cultures were harvested and counted in a CASY cell counter. A parasite suspension was prepared at a final concentration of 5 * 10^4 cells/mL in complete HMI9 medium and 6uL was dispensed to all wells containing compounds using a Multidrop Combi dispenser. 6uL of HMI9 media with 0.4% DMSO were dispensed to control columns. Plates were incubated for 24 h at 37C, 5% CO2 then tempered for 10 min at room temperature. ATP content was quantified by adding 4 uL of CellTiter-Glo Reagent (Promega) according to the manufacturer's instructions. Luminescence was measured using a ViewLux.; assay type: functional, organism-based; conditions: Lister 427, CASY
[13] = test system: Trypanosoma cruzi; assay: GSK_TCAKS: pIC50 Trypanosoma cruzi viability assay using beta-GAL activity. This assay was run at single shot at 5uM compound concentration per well. The biological reagents consisted of NIH-3T3 host cells and trypomastigotes parasitic cells; both cell types were set to a 3.3 * 10^5 cells/mL dilution in assay DMEM by means of a CASY cell counter device using a 60um capillary. 6 uL of the mixture were dispensed per well (about 1 * 10^3 host-cells and 1 * 10^3 parasites) with a Multidrop Combi dispenser. […] In all wells, the percentage of DMSO never exceeded 0.5%. Plates incubated for four days at 37C, 5% CO2. The substrate used for the assay fluorescence intensity (FLINT) readout was resorufin-beta-D-galactopiranoside (Sigma-Aldrich) at 5uM per well. It was diluted in PBS supplemented with the soft detergent Igepal (Fluka).; assay type: functional, organism-based, Mus musculus; conditions: Tulahuen, NIH3T3

Chain of Sterol 14-alpha demethylase (Q7Z1V1 whole entry): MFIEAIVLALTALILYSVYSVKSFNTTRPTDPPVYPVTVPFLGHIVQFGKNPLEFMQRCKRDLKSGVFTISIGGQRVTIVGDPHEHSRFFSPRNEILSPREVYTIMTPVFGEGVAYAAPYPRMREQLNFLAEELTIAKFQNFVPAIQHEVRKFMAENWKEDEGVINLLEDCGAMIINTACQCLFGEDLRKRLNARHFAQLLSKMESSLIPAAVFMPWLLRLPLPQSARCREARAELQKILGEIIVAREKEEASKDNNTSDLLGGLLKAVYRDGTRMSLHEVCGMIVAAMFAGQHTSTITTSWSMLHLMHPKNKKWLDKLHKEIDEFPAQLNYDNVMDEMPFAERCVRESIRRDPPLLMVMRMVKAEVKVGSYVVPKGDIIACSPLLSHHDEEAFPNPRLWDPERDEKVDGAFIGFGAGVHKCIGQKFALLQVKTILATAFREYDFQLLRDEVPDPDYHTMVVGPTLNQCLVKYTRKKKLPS

Compound	IC50 [1] [µM]	IC50 [2] [µM]	IC50 [3] [µM]	IC50 [4] [µM]	IC50 [5] [µM]	IC50 [6] [µM]	IC50 [7] [µM]	IC50 [8] [µM]	IC50 [9] [µM]	IC50 at 48 h [10] [µM]	IC50 [11] [µM]	IC50 [12] [µM]	IC50 [13] [µM]
COc1cccc(-c2cc(C(F)(F)F)nc(-n3ccc([N+](=O)[O-])n3)n2)c1	0.398	> 50.1	> 50.1	31.6	> 50.1	> 50.1	> 50.1	0.2	> 50.1	> 100	> 100	> 39.8	0.398
CN(C)Cc1ccc(-c2ccc(S(=O)(=O)NCC3CCCO3)c(F)c2)cc1 (stereo not drawn)	5.01	> 63.1	> 63.1	25.1	> 63.1	15.8	> 63.1	2	> 63.1	> 126	39.8	39.8	1.26
O=C1CCCCCC1(Cc1cnc[nH]1)c1ccc(Cl)cc1Cl (stereo not drawn)	0.251	6.31	> 50.1	> 39.8	> 50.1	20	> 50.1	0.316	> 50.1	79.4	0.1	> 39.8	0.251
Clc1ccc(C(CC2CCCCO2)Cn2cncn2)c(Cl)c1 (stereo not drawn)	1.26	> 50.1	25.1	> 39.8	> 50.1	39.8	> 50.1	1	> 50.1	> 100	0.251	> 39.8	0.398
COc1ccc(CN(C)Cc2ccncc2)cc1-c1ccc(S(=O)(=O)NC2CCC2)s1	0.631	15.8	39.8	> 39.8	20	25.1	> 50.1	0.501	10	> 100	0.0794	20	0.501
Cc1nc2[nH]c(C)c(Cc3ccc(C(C)C)cc3)c(=O)n2n1	0.794	15.8	1.26	> 39.8	> 50.1	> 50.1	31.6	0.251	> 50.1	> 100	> 100	> 39.8	0.501
Cn1nc([N+](=O)[O-])nc1N1CCCCC1	12.6	> 50.1	> 50.1	> 39.8	> 50.1	> 50.1	> 50.1	1	> 50.1	> 100	> 100	> 39.8	1.26
COc1cc(C(C)C)c(S(C)(=O)=O)cc1C(=O)N1CCN(c2ccccc2Cl)CC1	2.51	12.6	5.01	25.1	15.8	> 50.1	15.8	2	20	> 100	> 100	31.6	1.58
O=C(NCc1ccc(-n2cccc2)cc1)c1nc(Cn2ccc([N+](=O)[O-])n2)no1	2.51	> 50.1	> 50.1	> 39.8	> 50.1	50.1	> 50.1	1.26	> 50.1	> 100	> 100	> 39.8	2.51
COc1ccc(NS(=O)(=O)c2cccc(NC(=O)c3cc(F)cc(F)c3)c2)cc1	0.501	20	3.16	0.631	> 50.1	25.1	> 50.1	0.501	> 50.1	31.6	> 100	1	0.794
Cc1cc(N(C)C)nc(Nc2ccccc2C)n1	0.794	15.8	> 50.1	31.6	39.8	39.8	31.6	0.501	> 50.1	63.1	> 100	> 39.8	1.58
O=C1CSC(c2cccnc2)N1c1ccc(Cl)cc1Cl (stereo not drawn)	0.251	> 50.1	5.01	> 39.8	> 50.1	> 50.1	> 50.1	0.158	> 50.1	> 100	0.158	> 39.8	0.0708
CN(C)CCN(C)Cc1ccc(F)cc1NS(=O)(=O)c1ccc(Cl)c(Cl)c1	2.51	2.51	7.94	5.01	31.6	15.8	7.94	2	6.31	39.8	> 126	5.01	1.58
Cn1nc([N+](=O)[O-])nc1Oc1ccc(C(=O)c2ccccc2)cc1	0.316	> 50.1	> 50.1	20	> 50.1	> 50.1	> 50.1	0.126	> 50.1	> 100	> 100	> 39.8	0.251
CN1CCCN(C(=O)c2ccc(N3CCCC3)cc2Cl)CC1	1	> 50.1	39.8	> 39.8	> 50.1	25.1	> 50.1	0.631	> 50.1	> 100	> 100	> 39.8	0.891
COc1ccc(C2CC(c3ccccc3Cl)=NN2C(=O)CNC(=O)C2CCC2)cc1 (stereo not drawn)	1.58	> 50.1	> 50.1	0.316	> 50.1	31.6	> 50.1	1	> 50.1	> 100	50.1	0.501	2.82
